In BindingDB's records for doi:10.1021/jm051104t (University of Minnesota, 2006) one finds IC50 data, which are given here for four compounds.

Usually IC50 stands for the concentration that gives 50% inhibition.

A short description of this assay: Cytotoxicity against HEK293 cells transfected with recombinant AOR by MTT assay. For orientation: Tetrazolium assays rely on reduction of a dye to a coloured formazan, in cell work by metabolically active cells.

Take `CC1=CC2=C(C)C3(CC3)[C@](C)(O)C(=O)C2=C1`: the IC50 worked out at 5000 nM.
In the case of `CC1=C(CO)C2=C(C)C3(CC3)[C@](C)(O)C(=O)C2=C1` it was 1420 nM; in that of `CC1=C(CO)C2=C(C)C3(CC3)[C@@](C)(O)C(=O)C2=C1` [IROFULVEN], 55 nM; in that of `CC1=CC2=C(C)C3(CC3)[C@@](C)(O)C(=O)C2=C1` [ACYLFULVENE], 95 nM.
